In patent US20030195152A1, “Polymeric conjugates of antitumor agents” (priority 2000, published 2003):

Tested on: human colon carcinoma (HT29)
Assay: Antitumor activity on human colon carcinoma (HT29) transplanted in nude mice
Format: in vivo
Details: for TI % (tumor inhibition %): calculated at day 46, HT29 sc in nude mice
Method: Campound (A1a) was tested on human colon carcinoma (HT29) transplanted in nude mice, in comparison with the free drug 7-ethyl-10-hydroxycamptothecin (12) by i.v. route. A1a was found non toxic at all tested doses and gave 98% tumor inhibition at the highest tested dose of 20 mg/kg (Table 1).

[1] = dose 10 mg/kg i.v. q4dx6, total dose 60 mg/kg
[2] = dose 20 mg/kg i.v. q4dx6, total dose 120 mg/kg
[3] = dose 30 mg/kg i.v. q4dx6, total dose 180 mg/kg
[4] = dose 40 mg/kg i.v. q4dx6, total dose 240 mg/kg

## CCc1c2c(nc3ccc(O)cc13)-c1cc3c(c(=O)n1C2)COC(=O)[C@]3(O)CC [Compound 12, 7-ethyl-10-hydroxycamptothecin, reference compound]
[1]
  Tox (number of mice died for toxicity/total number mice): 0/7
  TI % (tumor inhibition %): 67%
[2]
  Tox (number of mice died for toxicity/total number mice): 3/7
  TI % (tumor inhibition %): 97%

## Copolymer of N-(2-hydroxypropyl)methacryloylamide, 7-ethyl-10-hydroxy-20-O-[N-methacryloyl-6-aminohexanoyl-(methionyl-sulfoxide)-glycyl-(S-benzyl-cysteinyl)-leucyl-glycyl]camptothecin and N-(2-hydroxypropyl)methacryloylglycinamide [Compound A1a]
All tested doses, i.v., nude mice bearing HT29
  toxicity: non toxic
[1]
  Tox (number of mice died for toxicity/total number mice): 0/7
  TI % (tumor inhibition %): 85%
[2]
  Tox (number of mice died for toxicity/total number mice): 0/7
  TI % (tumor inhibition %): 98%
Dose 20 mg/kg i.v. q4dx6, total dose 120 mg/kg, listed as Ala
  TI % (tumor inhibition %): 97%
[3]
  Tox (number of mice died for toxicity/total number mice): 0/7
  TI % (tumor inhibition %): 97%
[4]
  Tox (number of mice died for toxicity/total number mice): 0/7
  TI % (tumor inhibition %): 97%
